Assays:
[1] = titer based on the toxicity of 2,3,7,8-TCDD (receptor binding, allylhydrocarbon hydroxylase inducing ability, toxic effect); cited from earlier work
[2] = tested on: anti-dioxin monoclonal antibody; conditions: Catalog No. PDI-Dioxin-30, IgG1, host mouse; cited from earlier work
[3] = tested on: anti-dioxin monoclonal antibody; assay: surface plasmon resonance (BIAcore 2000) competitive method with HRP-2,3,7,8-TCDD on an antibody-fixed CM5 sensor chip; assay type: binding, mouse; conditions: average of the four cells
Text: An anti-dioxin monoclonal antibody was fixed to a sensor chip by the aminocoupling method using BIAcore (registered trademark) 2000.
As a sensor chip to which the antibody was not fixed, a sensor chip (commercial name CM5) available from BIAcore company was used. The metallic thin film 14 is composed of gold, and its thickness is 50 nm. The fixing body 18 is carboxymethyldextran having no crosslinked structure, and its thickness is 100 nm.
As the anti-dioxin monoclonal antibody, Catalog No. PDI-Dioxin-30 (Research Diagnostics, Inc., Pleasant Hill Road, Flanders, New Jersey, USA) was used. As the host, mouse was used. This anti-dioxin monoclonal antibody contains 10 mg IgG1 in 3.125 ml (3.2 mg/ml), 0.2M PBS, pH 7.2, and 0.05% sodium azide.
First, BIAcore's sensor chip CM5 was set in BIAcore (registered trademark) 2000. Then, a mixed solution of N-ethyl-N'-(3-dimethylaminopropyl)carbodiimide hydrochloride (EDC) and N-hydroxysuccinimide (NHS) was injected into BIAcore (registered trademark) 2000 to activate the sensor chip CM5.
The anti-dioxin monoclonal antibody (1,000 ppm) was centrifuged to replace the solvent. Finally, the antibody was dissolved in 100 µl of 10 mM acetic acid environment solution. The resulting solution in an amount of 50 µl was injected into BIAcore (registered trademark) 2000 at a rate of 5 µl/min to fix the anti-dioxin monoclonal antibody onto the surface of the sensor chip. […]
Using the sensor chip obtained in Example 1, dioxins were detected by the competitive method. […]
The diluted 2,3,7,8-TCDD solution of each concentration was mixed with 10 ppm HRP-2,3,7,8-TCDD in BIAcore. […] A change in the disappearance angle due to the binding of 2,3,7,8-TCDD itself to the antibody is too small to be measured by SPR. […]
Then, the mixture was injected (3 µl/min) into BIAcore 2000, and an SPR signal was measured to determined the disappearance angle. That is, polarized light with a wavelength of 760 nm was projected, and the intensity of reflected light was measured, with the angle of incidence of incident light being varied. […]

Row | Compound | TEF [1] | other results
1 | Clc1cc2c(c(Cl)c1Cl)Oc1c(Cl)c(Cl)c(Cl)c(Cl)c1O2 [1,2,3,4,6,7,8-Hepta CDD] | 0.01 | –
2 | Clc1cc2c(oc3c(Cl)c(Cl)c(Cl)c(Cl)c32)c(Cl)c1Cl [1,2,3,4,6,7,8-Hepta CDF] | 0.1 | –
3 | Clc1cc2oc3c(Cl)c(Cl)c(Cl)c(Cl)c3c2c(Cl)c1Cl [1,2,3,4,7,8,9-Hepta CDF] | 0.1 | –
4 | Clc1cc2c(cc1Cl)Oc1c(Cl)c(Cl)c(Cl)c(Cl)c1O2 [1,2,3,4,7,8-Hexa CDD] | 0.1 | –
5 | Clc1cc2oc3c(Cl)c(Cl)c(Cl)c(Cl)c3c2cc1Cl [1,2,3,4,7,8-Hexa CDF] | 0.1 | –
6 | Clc1cc2c(c(Cl)c1Cl)Oc1cc(Cl)c(Cl)c(Cl)c1O2 [1,2,3,6,7,8-Hexa CDD] | 0.1 | –
7 | Clc1cc2c(oc3cc(Cl)c(Cl)c(Cl)c32)c(Cl)c1Cl [1,2,3,6,7,8-Hexa CDF] | 0.1 | –
8 | Clc1cc2c(c(Cl)c1Cl)Oc1c(cc(Cl)c(Cl)c1Cl)O2 [1,2,3,7,8,9-Hexa CDD] | 0.1 | –
9 | Clc1cc2oc3cc(Cl)c(Cl)c(Cl)c3c2c(Cl)c1Cl [1,2,3,7,8,9-Hexa CDF] | 0.1 | –
10 | Clc1cc2c(cc1Cl)Oc1c(cc(Cl)c(Cl)c1Cl)O2 [1,2,3,7,8-Penta CDD] | 0.5 | –
11 | Clc1cc2oc3cc(Cl)c(Cl)c(Cl)c3c2cc1Cl [1,2,3,7,8-Penta CDF] | 0.05 | –
12 | Clc1cc(Cl)c2c(c1Cl)Oc1ccccc1O2 [1,2,4-TriCDD] | – | reactivity of the anti-dioxin monoclonal antibody [2]: <1.0%
13 | Clc1cc(Cl)c2c(c1)Oc1c(Cl)cc(Cl)cc1O2 [1,3,6,8-Tetra CDD] | 0 | –
14 | Clc1cc(Cl)c2c(c1)oc1c(Cl)cc(Cl)cc12 [1,3,6,8-Tetra CDF] | 0 | –
15 | Clc1cc(Cl)c2c(c1)Oc1cc(Cl)cc(Cl)c1O2 [1,3,7,9-Tetra CDD] | 0 | –
16 | Clc1cc2c(oc3c(Cl)c(Cl)c(Cl)cc32)c(Cl)c1Cl [2,3,4,6,7,8-Hexa CDF] | 0.1 | –
17 | Clc1cc2c(cc1Cl)Oc1cc(Cl)c(Cl)cc1O2 [2,3,7,8-TCDD] | 1 | ΔRU Average ([3]; Dioxin concentration 3.8 ppb): 234.75 RU; ΔRU Average ([3]; Dioxin concentration 7.6ppb): 197.9 RU; ΔRU Average ([3]; Dioxin concentration 76 ppb): 135.9 RU; reactivity of the anti-dioxin monoclonal antibody [2]: 100%
18 | Clc1cc2oc3cc(Cl)c(Cl)cc3c2cc1Cl [2,3,7,8-TCDF] | 0.1 | reactivity of the anti-dioxin monoclonal antibody [2]: 4.6%
19 | Clc1ccc2c(c1)Oc1cc(Cl)c(Cl)cc1O2 [2,3,7-TriCDD] | – | reactivity of the anti-dioxin monoclonal antibody [2]: <20%
20 | Clc1cc2c(cc1Cl)Oc1ccccc1O2 [2,3-DCDD] | – | reactivity of the anti-dioxin monoclonal antibody [2]: 2.2%
21 | Clc1ccc2c(c1)Oc1ccccc1O2 [2-CDD] | – | reactivity of the anti-dioxin monoclonal antibody [2]: 0.3%
22 | Clc1c(Cl)c(Cl)c2c(c1Cl)Oc1c(Cl)c(Cl)c(Cl)c(Cl)c1O2 [Octa CDD] | 0.001 | –
23 | Clc1c(Cl)c(Cl)c2c(oc3c(Cl)c(Cl)c(Cl)c(Cl)c32)c1Cl [Octa CDF] | 0.001 | –
